Some test systems named below: A549 NSCLC; CCRF-CEM leukemia; DMS 114 small cell lung; HOP-62 NSCLC; HS 578T breast; KM20L2 colon; MCF7 breast; NCI-H226 lung; RPMI-8226 leukemia; SF-539 CNS.
What all share (assay): NCI anticancer screen, dose series, 48 h

This is an account of results in PubChem BioAssay (NCI).

“And” between values parts separate entries of the source, which are not always exact repeats. Equal values may be shown once.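 Growth conditions: 96-well plates. Treatment: test compound, 48 hours, 5 concentrations. Analysis: linear interpolation between bracketing concentrations; unreached endpoints set to highest concentration. At the GI50, growth is halved. The concentration for full growth arrest is given as TGI.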

`COc1ccc2c(c1)C=C([N+](=O)[O-])C(C1OC(C)(C)OC1C1COC(C)(C)O1)O2` (stereo not given): the TGI in the assay on A549 NSCLC is 41.9 µM; in the assay on CCRF-CEM leukemia, 4.2 µM; in the assay on DMS 114 small cell lung, 8.55 µM; in the assay with HOP-62 NSCLC, 37.4 µM; in the assay with HS 578T breast it was more than 100 µM; with KM20L2 colon it was 17.3 µM. Also, the TGI in the assay with MCF7 breast was 9.12 µM; in the assay with NCI-H226 lung it was 21.6 µM; in the assay with RPMI-8226 leukemia, 4.54 µM; in the assay with SF-539 CNS, 19.3 µM.
For `CC1=C2C(=O)O[C@@H](c3ccoc3)[C@]2(C)CCC1`, the TGI in the assay with A549 NSCLC, with CCRF-CEM leukemia, with DMS 114 small cell lung, in the assay with HOP-62 NSCLC, in the assay on KM20L2 colon and in the assay with NCI-H226 lung was more than 100 µM in each case. Further, the TGI in the assay on RPMI-8226 leukemia and in the assay with SF-539 CNS was more than 100 µM throughout.
As to `CN/N=C(/CCN1CCCC1)CC(c1ccccc1)c1c(O)c2ccccc2oc1=O` (stereo not given), the TGI in the assay on A549 NSCLC, with CCRF-CEM leukemia, with DMS 114 small cell lung, with HOP-62 NSCLC, in the assay with HS 578T breast and in the assay on KM20L2 colon was more than 100 µM each time. Further, the TGI was more than 100 µM in the assay with MCF7 breast, more than 100 µM in the assay with NCI-H226 lung, more than 31.6 µM in the assay on RPMI-8226 leukemia and more than 100 µM in the assay with SF-539 CNS.
For `Cn1cc(C(=O)c2ccccc2)ccc1=O`, the TGI in the assay on A549 NSCLC, in the assay on CCRF-CEM leukemia, in the assay with DMS 114 small cell lung, in the assay with HOP-62 NSCLC, with KM20L2 colon and in the assay on NCI-H226 lung was more than 100 µM throughout. In addition, the TGI with RPMI-8226 leukemia and with SF-539 CNS was more than 100 µM in each case.
Regarding `O=c1cccccc1NCCCNc1cccccc1=O`, the TGI in the assay on A549 NSCLC, with CCRF-CEM leukemia, in the assay with DMS 114 small cell lung, with HOP-62 NSCLC, with KM20L2 colon and with NCI-H226 lung was more than 100 µM each time. Besides, the TGI in the assay on RPMI-8226 leukemia and with SF-539 CNS was more than 100 µM throughout.
On to `COc1ccc(C(C)c2cc3c(cc2OC)OCO3)cc1` (stereo not given), for which the TGI in the assay on A549 NSCLC was more than 100 µM; in the assay on CCRF-CEM leukemia, more than 66.2 µM; with DMS 114 small cell lung, 2.77 µM; in the assay on HOP-62 NSCLC it was more than 46.2 µM; with KM20L2 colon it was 0.533 µM; with MCF7 breast, 40.6 µM. Also, the TGI with NCI-H226 lung is 20.6 µM; in the assay with RPMI-8226 leukemia, more than 48.6 µM; with SF-539 CNS, 0.275 µM.
`CCCCCCCCCCCCCC1CCC(CC)N1` (stereo not given): the TGI with A549 NSCLC was 36.2 µM; in the assay with CCRF-CEM leukemia it was 18.2 µM; in the assay on DMS 114 small cell lung it was 17.4 µM; with HOP-62 NSCLC, 17.9 µM; in the assay with KM20L2 colon, 26.2 µM; in the assay on NCI-H226 lung, 30.2 µM. Moreover, the TGI was determined as 36.8 µM in the assay on RPMI-8226 leukemia and 32.1 µM in the assay on SF-539 CNS.
For `CCC1(O)C(=O)OCc2c1cc1n(c2=O)Cc2cc3ccc(C=O)cc3nc2-1` (stereo not given), the GI50 in the assay with A549 NSCLC is 7.43 µM; with CCRF-CEM leukemia, 0.052 µM; in the assay with HOP-62 NSCLC, 0.476 µM; with HS 578T breast, 27 µM; in the assay with MCF7 breast, 0.187 µM; in the assay with NCI-H226 lung, 1.76 µM. Moreover, the GI50 in the assay on SF-539 CNS was 1.69 µM. The TGI in the assay on A549 NSCLC is 50 µM and 18.8 µM; in the assay on CCRF-CEM leukemia, 0.37 µM and 1.14 µM; with DMS 114 small cell lung, 20.5 µM; in the assay with HOP-62 NSCLC, 14.9 µM and 1.56 µM; in the assay on HS 578T breast, 50 µM and > 100 µM; in the assay with KM20L2 colon it was more than 50.3 µM. The TGI with MCF7 breast was 50 µM and 10.6 µM; in the assay on NCI-H226 lung, 13.9 µM and 7.4 µM; in the assay with RPMI-8226 leukemia, 30.4 µM.
For the compound `Cc1ccc(Nc2nc3c(s2)C(=O)c2ccccc2C3=O)c(C)c1`, the TGI was 37.6 µM with A549 NSCLC; 25.8 µM in the assay on CCRF-CEM leukemia; 24.1 µM in the assay with DMS 114 small cell lung; 30.5 µM in the assay on HOP-62 NSCLC; more than 100 µM in the assay on KM20L2 colon; 17.6 µM in the assay on NCI-H226 lung. The figures for the TGI with RPMI-8226 leukemia and with SF-539 CNS were 45.6 µM and 31.4 µM, respectively.
`CC(=O)OC[C@]12CC[C@H]3[C@@H](C[C@H]4O[C@]45[C@@H](O)C=CC(=O)[C@]35C)[C@@H]1CC[C@@H]2[C@H](C)[C@H]1CC(C)=C(C)C(=O)O1`: the GI50 with A549 NSCLC was 0.822 µM and 1.04 µM; with CCRF-CEM leukemia, 0.229 µM and 0.112 µM; in the assay on DMS 114 small cell lung it was 0.324 µM and 0.357 µM; in the assay with HOP-62 NSCLC, 1.51 µM; in the assay on KM20L2 colon, 0.512 µM and 0.407 µM; with NCI-H226 lung it was 0.983 µM and 0.583 µM. In addition, the GI50 in the assay with RPMI-8226 leukemia is 0.26 µM and 0.107 µM; in the assay with SF-539 CNS, 0.303 µM and 0.2 µM. In addition, the TGI is 3.2 µM in the assay on A549 NSCLC; 0.745 µM and 1.82 µM in the assay with CCRF-CEM leukemia; 0.823 µM and 1.12 µM with DMS 114 small cell lung; 3.52 µM in the assay on HOP-62 NSCLC; 0.829 µM and 1.44 µM with KM20L2 colon; 1.9 µM in the assay on NCI-H226 lung. Besides, the TGI with RPMI-8226 leukemia is 0.846 µM and 0.446 µM; in the assay with SF-539 CNS it was 0.73 µM and 0.452 µM.
Turning to `C[N+](C)(C)CC1CCCC(C[N+](C)(C)C)C1=O` (stereo not given), the TGI was 40.6 µM with A549 NSCLC; 1.28 µM in the assay on CCRF-CEM leukemia; 3.49 µM with DMS 114 small cell lung; 43.3 µM with HOP-62 NSCLC; 33.6 µM in the assay on HS 578T breast; 5.5 µM in the assay with KM20L2 colon. The TGI is 31.4 µM in the assay on NCI-H226 lung, 0.256 µM in the assay on RPMI-8226 leukemia and 8.8 µM in the assay on SF-539 CNS.
